# From ChEMBL document CHEMBL5291721, “A preclinical secondary pharmacology resource illuminates target-adverse drug reaction associations of marketed drugs” (Nat Commun, 2023)
# Target: T1, Androgen receptor (Rattus norvegicus, UniProt P15207)
# T1 sequence (P15207 whole entry): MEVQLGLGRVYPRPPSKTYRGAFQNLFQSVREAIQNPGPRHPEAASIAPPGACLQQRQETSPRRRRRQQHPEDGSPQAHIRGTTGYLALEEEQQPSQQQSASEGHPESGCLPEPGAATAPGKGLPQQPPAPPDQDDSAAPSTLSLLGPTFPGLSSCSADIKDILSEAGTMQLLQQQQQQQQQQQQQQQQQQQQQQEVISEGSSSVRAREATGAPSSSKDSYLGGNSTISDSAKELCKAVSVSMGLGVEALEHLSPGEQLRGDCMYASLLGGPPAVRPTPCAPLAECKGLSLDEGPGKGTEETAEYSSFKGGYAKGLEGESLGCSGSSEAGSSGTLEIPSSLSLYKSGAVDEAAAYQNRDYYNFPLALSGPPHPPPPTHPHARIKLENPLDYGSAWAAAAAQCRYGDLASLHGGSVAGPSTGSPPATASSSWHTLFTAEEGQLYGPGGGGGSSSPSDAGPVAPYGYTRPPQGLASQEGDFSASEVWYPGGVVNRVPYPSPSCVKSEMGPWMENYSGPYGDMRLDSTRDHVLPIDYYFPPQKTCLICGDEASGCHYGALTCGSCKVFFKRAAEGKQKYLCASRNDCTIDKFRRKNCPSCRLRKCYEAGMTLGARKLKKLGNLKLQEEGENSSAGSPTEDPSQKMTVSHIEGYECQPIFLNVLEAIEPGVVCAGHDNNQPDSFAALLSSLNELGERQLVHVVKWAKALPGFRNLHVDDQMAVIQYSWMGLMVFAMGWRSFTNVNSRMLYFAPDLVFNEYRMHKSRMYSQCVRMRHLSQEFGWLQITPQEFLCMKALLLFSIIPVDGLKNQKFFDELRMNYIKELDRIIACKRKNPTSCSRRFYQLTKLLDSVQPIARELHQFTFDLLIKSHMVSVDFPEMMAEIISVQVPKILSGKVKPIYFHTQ
# Type: functional
# Note: assay procedure not described here.
smiles,measurement,value
CCCC(=O)N1CCCN(c2nc(N)c3cc(OC)c(OC)cc3n2)CC1 [BUNAZOSIN],AC50,> 30 µM
